# Results from patent US20020065236A1, “CpG reduced plasmids and viral vectors” (priority 1998, published 2002).
# Experiments:
# [1] = system: BALB/c mice; assay: Cytokine levels in BALF (ELISA) after intranasal instillation; settings: for cytokine levels in BALF at higher concentrations of the compound: instilled with GL-67:pCFA-CAT; for inhibition of cytokine production in the lung: without affecting gene expression
# Description: Cytokine levels in the mouse BALF were quantitated using enzyme-linked immunosorbent assay (ELISA) kits as specified by the manufacturers. IFN-γ, TNF-α, IL1-α, IL-1β, IL-10 and IL-6 ELISA kits were from Genzyme Corporation, mKC, MIP-2 and GM-CSF ELISA kits were from R&D Systems, and Leukotriene B4 ELISA kit was from Perseptive Diagnostics.
# BALB/c mice were instilled intranasally with 100 μl of complex as described. […] The animals were euthanized and their lungs were lavaged 24 h post-instillation using phosphate-buffered saline (PBS). The recovered BALF were centrifuged at 1,500 rpm for 4 min, and the resulting supernatants were removed and frozen at −80° C. for subsequent cytokine analysis. The cell pellets were resuspended in PBS for microscopic determination of cell number and cell types.
# Separate groups of mice were instilled with either (m)pDNA or unmethylated pDNA alone, or vehicle, and their bronchoalveolar lavage fluids collected for analysis at 24 h post-treatment.
# The animals were euthanized and their lungs were lavaged 24 h post-instillation using phosphate-buffered saline (PBS). The recovered BALF were centrifuged at 1,500 rpm for 4 min., and the resulting supernatants were removed and frozen at −80° C. for subsequent cytokine analysis.
# Cytokine levels were quantitated using enzyme-linked immunosorbent assay (ELISA) kits as specified by the manufacturer (Genzyme Corporation, Framingham, MA).
# [2] = system: BALB/c mice; assay: Lung histopathology after intranasal instillation; settings: 2 days post-instillation, blinded
# Description: The histopathological changes within BALB/c mouse lungs following administration of either cationic lipid alone, pDNA alone, or cationic lipid:pDNA complexes were also examined. […] Mice were sacrificed 2 days post-instillation and the lungs were processed for histological examination in a blinded manner.
# Lungs were fixed by inflation at 30 cm of H2O pressure with 2% paraformaldehyde and 0.2% glutaraldehyde. Representative samples were taken from each lung lobe, embedded in glycol methacrylate, sectioned and stained with hematoxylin and eosin. Histopathology on the lung was evaluated in a blinded fashion and graded subjectively using a scale of 0 to 4, with a score of 0 indicating no abnormal findings and a score of 4 reflecting severe changes with intense infiltrates See Scheule et al., Hum.
# [3] = system: mouse spleen cells; assay: IL-12 induction from mouse spleen cells; type: cell-based; settings: for levels of IL-12 induction by GL-67:pCFA-CAT: addition of 10 μM of chloroquine or 1 μM of quinacrine; for levels of IL-12 induction by pCFA-CAT: co-addition of 10 μM of chloroquine or 1 μM of quinacrine, 24 hours
# Description: 6-8 week old 8ALB/c mice were sacrificed by cervical dislocation. Spleens were excised and placed in sterile PBS on ice. To prepare single cell suspensions, the spleens were placed in a tissue culture dish in PBS and crushed between the frosted edges of two sterile microscope slides. Cells were pelleted by centrifugation at 1200 rpm for 8 min., and washed 3 times in PBS. After the final wash, the cells were resuspended in RPMI medium supplemented with 25 mM HEPES buffer, 10% fetal bovine serum, 2 mM L-glutamine, and 50 μM 2-mercaptoethanol (2-ME). The resuspended cells were then plated at 6×10^6 cells/ml/well in 24-well culture plates. Supernatant were collected 24 hr after addition of oligonucleotides or plasmid DNA for the measurement of cytokine (IL-12) production.
# [4] = system: mouse spleen cells; settings: 10 μM chloroquine or 1 μM quinacrine
# Description: Another strategy to reduce the stimulatory properties of the pDNA vector is to use specific inhibitors of 1 he CpG signaling pathway. […] These compounds were tested for their ability to inhibit the stimulatory properties of pDNA and cationic lipid-pDNA complexes in vitro and in the mouse lung.
Compound,"levels of TNF-α, IFN-γ, IL-6 and murine KC (these four cytokines) in the BALF ([1]; 24 h after intranasal instillation of the component alone)",contribution to the cytokine induction in the BALF ([1]; with the exception of KC),"lung inflammation (histopathology, score on a scale from 0 to 4) [2]",cytokine levels in BALF at higher concentrations of the compound [1],inhibition of cytokine production in the lung [1],induction of IL-12 production from mouse spleen cells in vitro [3],levels of IL-12 induction by GL-67:pCFA-CAT [3],levels of IL-12 induction by pCFA-CAT [3],effects on expression of the CAT reporter gene [4],effects on cell viability [4]
CC(C)CCCC(C)C1CCC2C3CC=C4CC(OC(=O)N(CCCN)CCCCNCCCN)CCC4(C)C3CCC12C (stereo not shown) [GL-67],low levels,did not contribute significantly,scored slightly lower,,,,,,,
CCN(CC)CCCC(C)Nc1ccnc2cc(Cl)ccc12 (stereo not shown) [chloroquine],,,,did not further decrease,50%,greatly reduced,near background levels,near background levels,no discernible effects,
CCN(CC)CCCC(C)Nc1c2ccc(Cl)cc2nc2ccc(OC)cc12 (stereo not shown) [quinacrine],,,,did not further decrease,50%,greatly reduced,near background levels,near background levels,no discernible effects,no discernible effects
